pIC50: −log10 of the molar value. Each block holds one compound with its values, some of them ahead of it.
Target: T1, human Cot/Tpl2 kinase (Homo sapiens, UniProt P41279)
T1 construct: human Cot/Tpl2 kinase construct encoding residues 30-398; 6His (N); made in house; host or cells: Sf9 insect cells, baculovirus system (BD Biosciences)
Experiment: Tpl2/Cot kinase assay: GST-MEK1 phosphorylation detected by ELISA (DELFIA Eu)
Assay type: biochemical
In short: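 His-tagged human Tpl2 from Sf9 cells, Ni-affinity and size-exclusion purified (monomer). 0.4 nM Tpl2 with 35 nM GST-MEK1, 50 uM ATP, MOPS pH 7.2, 1% DMSO, 1 h at 30° C; EDTA stop. MEK1 Ser217/221 phosphorylation detected by anti-phospho-MEK1 and Eu-labelled secondary ELISA; IC50 fitted.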

[1] = 0.4 nM Tpl2, 35 nM GST-MEK1, 50 uM ATP, 1 h at 30° C.
[2] = Table 2, Tpl2/Cot kinase, GST-MEK1 substrate, 50 uM ATP
[3] = Tpl2/Cot kinase, GST-MEK1 substrate, 50 uM ATP, 1 h at 30° C., Table 2
[4] = Tpl2/Cot kinase, GST-MEK1 substrate, 50 uM ATP

T1 sequence (P41279 30-398): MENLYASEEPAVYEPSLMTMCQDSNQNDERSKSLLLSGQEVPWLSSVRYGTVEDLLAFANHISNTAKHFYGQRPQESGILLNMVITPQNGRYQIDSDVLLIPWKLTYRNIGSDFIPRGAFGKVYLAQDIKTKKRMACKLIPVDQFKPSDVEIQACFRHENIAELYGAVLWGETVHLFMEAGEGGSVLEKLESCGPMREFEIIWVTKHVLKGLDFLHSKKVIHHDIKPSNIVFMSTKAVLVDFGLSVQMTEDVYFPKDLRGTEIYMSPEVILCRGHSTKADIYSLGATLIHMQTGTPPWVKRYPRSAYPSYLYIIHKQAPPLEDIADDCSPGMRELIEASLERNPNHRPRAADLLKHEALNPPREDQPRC

Structure (SMILES): CN(C)Cc1cc(NCCN2CCOCC2)cc2c(Nc3cccc(Br)c3)c(C#N)cnc12 [Example 387]
- pIC50 [2]: < 4.40

Structure (SMILES): C[Si](C)(C)c1n[nH]nc1CNc1cc(Br)c2ncc(C#N)c(Nc3ccc(F)c(Cl)c3)c2c1 [Example 435]
- pIC50 [2]: 7.68

Structure (SMILES): CN1CC(CCn2cc(CNc3cc(Cl)c4ncc(C#N)c(Nc5ccc(F)c(Cl)c5)c4c3)nn2)N(C)C1=O (centres unmarked) [Example 615]
- pIC50 [2]: 8.21

Structure (SMILES): N#Cc1cnc2c(CCO)cc(NCc3cnc[nH]3)cc2c1Nc1ccc(F)c(Cl)c1 [Example 462]
- pIC50 [2]: 5.92

Structure (SMILES): COCCOCCn1cc(CNc2cc(Cl)c3ncc(C#N)c(Nc4ccc(F)c(Cl)c4)c3c2)nn1 [Example 744]
- pIC50 [4]: 7.68

Structure (SMILES): Cc1c(CNc2cc(Cl)c3ncc(C#N)c(Nc4ccc(F)c(Cl)c4)c3c2)ncn1C [Example 183, 8-chloro-4-(3-chloro-4-fluorophenylamino)-6-((1,5-dimethyl-1H-imidazol-4-yl)methylamino)quinoline-3-carbonitrile]
- pIC50 [1]: 7.66

Structure (SMILES): N#Cc1cnc2ccc(NCc3nccn3CC(=O)O)cc2c1Nc1ccc(F)c(Cl)c1 [Example 136, 2-(2-((4-(3-chloro-4-fluorophenylamino)-3-cyanoquinolin-6-ylamino)methyl)-1H-imidazol-1-yl)acetic acid]
- pIC50 [1]: 7.19

Structure (SMILES): N#Cc1cnc2c(Br)cc(NCc3cn(CCN4CCOC4=O)nn3)cc2c1Nc1ccc(F)c(Cl)c1 [Example 223, 8-bromo-4-(3-chloro-4-fluorophenylamino)-6-((1-(2-(2-oxooxazolidin-3-yl)ethyl)-1H-1,2,3-triazol-4-yl)methylamino)quinoline-3-carbonitrile]
- pIC50 [1]: 7.43

Structure (SMILES): CN1CCN(CCCn2cc(CNc3cc(Br)c4ncc(C#N)c(Nc5ccc(F)c(Cl)c5)c4c3)nn2)CC1 [Example 795]
- pIC50 [4]: 7.54

Structure (SMILES): N#Cc1cnc2ccc(NCc3cccc[n+]3[O-])cc2c1NC1CCCCCC1 [Example 253, 4-(cycloheptylamino)-6-{[(1-oxidopyridin-2-yl)methyl]amino}quinoline-3-carbonitrile]
- pIC50 [1]: 5.85

Structure (SMILES): N#Cc1cnc2c(Cl)cc(NCCNS(=O)(=O)Cc3ccccn3)cc2c1Nc1ccc(F)c(Cl)c1 [Example 857]
- pIC50 [4]: 6.17

Structure (SMILES): CS(=O)(=O)CCn1cnc(CNc2cc(Br)c3ncc(C#N)c(Nc4ccc(F)c(Cl)c4)c3c2)c1 [Example 529]
- pIC50 [2]: 7.37

Structure (SMILES): CCNC(=O)N1CCC(CCn2cc(CNc3cc(Cl)c4ncc(C#N)c(Nc5ccc(F)c(Cl)c5)c4c3)nn2)CC1 [Example 831]
- pIC50 [4]: 8.03

Structure (SMILES): N#Cc1cnc2c(Cl)cc(NCC3CCNCC3)cc2c1Nc1ccc(F)c(Cl)c1 [Example 824]
- pIC50 [4]: 5.91

Structure (SMILES): CN1CCCC1CCn1cc(CNc2cc(Cl)c3ncc(C#N)c(NC4CCCC4)c3c2)nn1 (centres unmarked) [Example 944]
- pIC50 [3]: < 5.52

Structure (SMILES): N#Cc1cnc2ccc(NCC(N)=O)cc2c1Nc1ccc(F)c(Cl)c1 [Example 176, 2-(4-(3-chloro-4-fluorophenylamino)-3-cyanoquinolin-6-ylamino)acetamide]
- pIC50 [1]: 5.37

Structure (SMILES): N#Cc1cnc2c(Cl)cc(NCc3cn(C4CCCN(CC(F)(F)F)CC4)nn3)cc2c1Nc1ccc(F)c(Cl)c1 (centres unmarked) [Example 1009]
- pIC50 [3]: 6.57

Structure (SMILES): N#Cc1cnc2c(Cl)cc(NCc3cn(CCN4CCCCCC4)nn3)cc2c1NC1CCC2(CCCCC2)CC1 [Example 975]
- pIC50 [3]: < 5.52

Structure (SMILES): N#Cc1cnc2c(Cl)cc(NCc3cn(CC(=O)NC4CC4)nn3)cc2c1Nc1ccc(F)c(Cl)c1 [Example 876]
- pIC50 [4]: 8.89

Structure (SMILES): N#Cc1cnc2c(NC=O)cc(NCc3cccnc3)cc2c1Nc1cccc(Cl)c1 [Example 75, N-(4-(3-chlorophenylamino)-3-cyano-6-(pyridin-3-ylmethylamino)quinolin-8-yl)formamide]
- pIC50 [1]: 5.59

Structure (SMILES): CC(C)N1CCCC1Cn1cc(CNc2cc(Br)c3ncc(C#N)c(Nc4ccc(F)c(Cl)c4)c3c2)nn1 (centres unmarked) [Example 878]
- pIC50 [4]: 6.96

Structure (SMILES): CC(C)(C)OC(=O)N1CCC(n2cc(CNc3cc(Cl)c4ncc(C#N)c(Nc5ccc(F)c(Cl)c5)c4c3)nn2)CC1 [Example 925]
- pIC50 [3]: 7.14

Structure (SMILES): N#Cc1cnc2c(F)cc(NCc3ccn[nH]3)cc2c1Nc1ccc(F)c(Cl)c1 [Example 267, 4-[(3-chloro-4-fluorophenyl)amino]-8-fluoro-6-[(1H-pyrazol-5-ylmethyl)amino]quinoline-3-carbonitrile]
- pIC50 [1]: 7.00

Structure (SMILES): N#Cc1cnc2c(Cl)cc(NC3CCCC3Cl)cc2c1Nc1ccc(F)c(Cl)c1 (centres unmarked) [Example 782]
- pIC50 [4]: < 5.52

Structure (SMILES): N#Cc1cnc2c(Br)cc(NCc3cn(CCN4CCOCC4)cn3)cc2c1Nc1ccc(F)c(Cl)c1 [Example 669]
- pIC50 [4]: 7.39

Structure (SMILES): CC(C)(C)OC(=O)N1CCCC(Cn2cc(CNc3cc(Br)c4ncc(C#N)c(Nc5ccc(F)c(Cl)c5)c4c3)nn2)C1 (centres unmarked) [Example 540]
- pIC50 [2]: 6.92

Structure (SMILES): CCN1CCC[C@@H]1Cn1cc(CNc2cc(Cl)c3ncc(C#N)c(Nc4ccc(F)c(Cl)c4)c3c2)nn1 [Example 892]
- pIC50 [4]: 7.52

Structure (SMILES): N#Cc1cnc2ccc(NCc3ccc([N+](=O)[O-])o3)cc2c1Nc1ccc(F)c(Cl)c1 [Example 11, 4-(3-Chloro-4-fluoro-phenylamino)-6-[(5-nitro-furan-2-ylmethyl)-amino]-quinoline-3-carbonitrile]
- pIC50 [1]: 6.91

Structure (SMILES): Cc1cc(NCCN2CCOCC2)cc2c(Nc3cccc(Br)c3)c(C#N)cnc12 [Example 131, 4-(3-bromophenylamino)-8-methyl-6-(2-morpholinoethylamino)quinoline-3-carbonitrile]
- pIC50 [1]: 4.80

Next, values leading:

- pIC50 [1]: 7.46
Structure (SMILES): N#Cc1cnc2c(Cl)cc(NCc3cccc(N4CCOCC4)n3)cc2c1Nc1ccc(F)c(Cl)c1 [Example 274, 8-chloro-4-[(3-chloro-4-fluorophenyl)amino]-6-{[(6-morpholin-4-ylpyridin-2-yl)methyl]amino}quinoline-3-carbonitrile]

- pIC50 [3]: 6.59
Structure (SMILES): CCN1CCN(CCn2cc(CNc3cc(Cl)c4ncc(C#N)c(Nc5ccc(F)c(Cl)c5)c4c3)nn2)CC1 [Example 964]

- pIC50 [1]: 6.82
Structure (SMILES): N#Cc1cnc2ccc(NCc3cccc(S(N)(=O)=O)c3)cc2c1Nc1ccc(F)c(Cl)c1 [Example 168, 3-((4-(3-chloro-4-fluorophenylamino)-3-cyanoquinolin-6-ylamino)methyl)benzenesulfonamide]

- pIC50 [2]: 5.89
Structure (SMILES): N#Cc1cnc2ccc(NCc3cccc[n+]3[O-])cc2c1NC1CCCC1 [Example 410]

- pIC50 [3]: 6.80
Structure (SMILES): CC(C)(C)OC(=O)N1CCC(O)(c2cncc(CNc3cc(Cl)c4ncc(C#N)c(Nc5ccc(F)c(Cl)c5)c4c3)c2)CC1 [Example 1031]

- pIC50 [1]: 5.74
Structure (SMILES): N#Cc1cnc2ccc(NCc3ccccc3O)cc2c1Nc1ccc(F)c(Cl)c1 [Example 55, 4-(3-Chloro-4-fluoro-phenylamino)-6-(2-hydroxy-benzylamino)-quinoline-3-carbonitrile]

- pIC50 [4]: 6.08
Structure (SMILES): CS(=O)(=O)NCCCn1cc(CN(C=O)c2cc(Cl)c3ncc(C#N)c(Nc4ccc(F)c(Cl)c4)c3c2)nn1 [Example 916]

- pIC50 [4]: 7.00
Structure (SMILES): N#Cc1cnc2c(Br)cc(NCc3cn(CC(F)(F)F)nn3)cc2c1Nc1ccc(F)c(Cl)c1 [Example 673]

- pIC50 [2]: 7.39
Structure (SMILES): N#Cc1cnc2c(Br)cc(NCc3cn(CCN4CCOCC4)cn3)cc2c1Nc1ccc(F)c(Cl)c1 [Example 488]

- pIC50 [1]: 7.18
Structure (SMILES): COc1c(C)c[n+]([O-])c(CNc2cc(Cl)c3ncc(C#N)c(Nc4ccc(F)c(Cl)c4)c3c2)c1C [Example 277, 8-Chloro-4-[(3-chloro-4-fluorophenyl)amino]-6-{[(4-methoxy-3,5-dimethyl-1-oxidopyridin-2-yl)methyl]amino}quinoline-3-carbonitrile]

- pIC50 [4]: 8.28
Structure (SMILES): N#Cc1cnc2c(Cl)cc(NCc3cn(CC(=O)N4CCCCCCC4)nn3)cc2c1Nc1ccc(F)c(Cl)c1 [Example 815]

- pIC50 [1]: 8.04
Structure (SMILES): Cn1cnc(CNc2cc(Cl)c3ncc(C#N)c(Nc4ccc(F)c(Cl)c4)c3c2)c1 [Example 201, 8-chloro-4-[(3-chloro-4-fluorophenyl)amino]-6-{[(1-methyl-1H-imidazol-4-yl)methyl]amino}quinoline-3-carbonitrile]

- pIC50 [2]: 7.37
Structure (SMILES): N#Cc1cnc2c(Br)cc(NCc3cn(CCCN4CCCNCC4)nn3)cc2c1Nc1ccc(F)c(Cl)c1 [Example 594]

- pIC50 [2]: 9.15
Structure (SMILES): N#Cc1cnc2c(Cl)cc(NCc3cn(Cc4cccnc4)cn3)cc2c1Nc1ccc(F)c(Cl)c1 [Example 553]

- pIC50 [1]: 7.51
Structure (SMILES): N#Cc1cnc2ccc(NCc3nccs3)cc2c1Nc1ccc(F)c(Cl)c1 [Example 8, 4-(3-Chloro-4-fluoro-phenylamino)-6-[(thiazol-2-ylmethyl)-amino]-quinoline-3-carbonitrile]

- pIC50 [1]: 7.09
Structure (SMILES): COCCOc1ccc(CNc2ccc3ncc(C#N)c(Nc4ccc(F)c(Cl)c4)c3c2)cc1C#N [Example 25, 4-(3-Chloro-4-fluoro-phenylamino)-6-[3-cyano-4-(2-methoxy-ethoxy)-benzylamino]-quinoline-3-carbonitrile]

- pIC50 [2]: < 4.40
Structure (SMILES): N#Cc1cnc2ccc(NCCN3CCOCC3)cc2c1Sc1ccc(F)c(Cl)c1 [Example 358]

- pIC50 [2]: 7.74
Structure (SMILES): COCCn1cc(CNc2cc(Br)c3ncc(C#N)c(Nc4ccc(F)c(Cl)c4)c3c2)nn1 [Example 522]

- pIC50 [3]: 6.27
Structure (SMILES): N#Cc1cnc2c(Cl)cc(NCC3CCCN(C(=O)CNCc4cccnc4)C3)cc2c1Nc1ccc(F)c(Cl)c1 (centres unmarked) [Example 921]

- pIC50 [2]: 7.15
Structure (SMILES): CN1CCCN(CCCn2cc(CNc3cc(Br)c4ncc(C#N)c(Nc5ccc(F)c(Cl)c5)c4c3)nn2)CC1 [Example 624]

- pIC50 [2]: 7.64
Structure (SMILES): N#Cc1cnc2c(Cl)cc(NCc3cn(CC(F)(F)F)nn3)cc2c1Nc1ccc(F)c(Cl)c1 [Example 491]

- pIC50 [4]: 8.74
Structure (SMILES): CN(CCCn1cc(CNc2cc(Cl)c3ncc(C#N)c(Nc4ccc(F)c(Cl)c4)c3c2)nn1)C1CCCCC1 [Example 801]

- pIC50 [4]: 6.82
Structure (SMILES): CN(C)C(=O)Cn1cc(CN(C)c2cc(Cl)c3ncc(C#N)c(Nc4ccc(F)c(Cl)c4)c3c2)nn1 [Example 851]

- pIC50 [2]: 6.43
Structure (SMILES): CS(=O)(=O)c1ccc(CNc2ccc3ncc(C#N)c(Nc4cccc(Cl)c4)c3c2)cc1 [Example 349]
